Assay results as given in US20250345284A1, “LIPID NANOPARTICLE (LNP) COMPOSITIONS AND METHODS OF USE THEREOF” (The Trustees Of The University of Pennsylvania, priority 2021, published 2025).

How the values were obtained:
[1] = Z-average diameter and polydispersity index by dynamic light scattering (Zetasizer Nano); format: physicochemical; conditions: LNPs with 12.5%, 25% and 50% substitution of the named hydroxycholesterol
[2] = Stability of 100% hydroxycholesterol substitution LNPs over 28 days; conditions: 100% substitution of hydroxycholesterol for cholesterol, vs S2
Source text: FIG. 8B depicts measurements of z-average diameter, PDI, mRNA concentration, and encapsulation efficiency for S2 LNPs and LNP formulations with 100% cholesterol substitution taken over 28 days to assess LNP stability. […] Error bars denote standard deviation. FIG. 8C depicts the pKa, zeta potential, z-average diameter, and PDI measurements for the exemplary LNPs of the present disclosure. n=3. Error bars denote standard deviation.
Characterization parameters assessed over the 28-day period include z-average diameter, PDI, mRNA concentration, and encapsulation efficiency (Table 3).

Row | Structure (SMILES) | PDI (in words) [1] | z-average diameter (in words) [1] | stability (all characterization parameters) [2]
1 | CC(C)CCC[C@@H](C)[C@H]1CC[C@H]2[C@@H]3[C@H](O)C=C4C[C@@H](O)CC[C@]4(C)[C@H]3CC[C@]12C [A1, 7α-hydroxycholesterol] | remained within expected ranges | remained within expected ranges | comparable on all parameters on all days to S2
2 | CC(C)CCC[C@@H](C)[C@H]1CC[C@H]2[C@@H]3[C@@H](O)C=C4C[C@@H](O)CC[C@]4(C)[C@H]3CC[C@]12C [A2, 7β-hydroxycholesterol] | remained within expected ranges | remained within expected ranges | comparable on all parameters on all days to S2
3 | CC(C)CCC[C@@H](C)[C@H]1CC[C@H]2[C@@H]3CC=C4C[C@@H](O)CC[C@]4(CO)[C@H]3CC[C@]12C [A3, 19-hydroxycholesterol] | remained within expected ranges | remained within expected ranges | –
4 | CC(C)CCC[C@](C)(O)[C@H]1CC[C@H]2[C@@H]3CC=C4C[C@@H](O)CC[C@]4(C)[C@H]3CC[C@@]21C [B1, 20 (S)-hydroxycholesterol] | remained within expected ranges | remained within expected ranges | comparable on all parameters on all days to S2
5 | CC(C)[C@@H](O)CC[C@@H](C)[C@H]1CC[C@H]2[C@@H]3CC=C4C[C@@H](O)CC[C@]4(C)[C@H]3CC[C@]12C [B2, 24 (S)-hydroxycholesterol] | more polydisperse | increased particle diameters | –
6 | C[C@H](CCCC(C)(C)O)[C@H]1CC[C@H]2[C@@H]3CC=C4C[C@@H](O)CC[C@]4(C)[C@H]3CC[C@]12C [B3, 25-hydroxycholesterol] | more polydisperse | increased particle diameters | –
